Data taken from patent US20220117968A1, “THIENO[2,3-D)PYRIMIDINES AND BENZOFURO(3,2-D)PYRIMIDINES AS ANTIMICROBIAL AGENTS” (Saint Louis University, priority 2017, published 2022).
Converted amounts (≈) assume the structure as drawn.

Legend:
WT Mtb Erdman strain = test: Microplate Alamar Blue Assay (MABA); assay type: cell-based; conditions: Mycobacterium tuberculosis, Middlebrook 7H9 media, 7 days at 37° C., resazurin 24 hours; for MIC50: concentration that inhibits mycobacterial survival by 50%, read-out: MABA MIC50; for MIC90: concentration that inhibits mycobacterial survival by 90%, read-out: MABA MIC90
WT Mtb Erdman = test: Disk zone of inhibition assay; assay type: cell-based; conditions: Mycobacterium tuberculosis, 240 h, radius of zone absent of bacterial growth, 5 μl of 100 mM stock in DMSO on disk, Middlebrook 7H10 agar, 10 days at 37° C.

Row | SMILES | MIC50 (WT Mtb Erdman strain) | MIC90 (WT Mtb Erdman strain) | zone of inhibition at 100000 µM (stock) (WT Mtb Erdman)
1 | CCc1nc(NC2CC2)c2cc(C)sc2n1 [Example 0946, N-Cyclopropyl-2-ethyl-6-methylthieno[2,3-d]pyrimidin-4-amine] | 0.633 µM (≈ 0.148 µg/mL) | 2.04 µM (≈ 0.476 µg/mL) | 27 mm
2 | CCc1nc(N2CCCCC2)c2cc(C)sc2n1 [Example 0942, 1-{2-ethyl-6-methylthieno[2,3-d]pyrimidin-4-yl}piperidine] | 47.5 µM (≈ 12.4 µg/mL) | > 50 µM | 5 mm
3 | CCc1nc(NC(C)(C)C)c2cc(C)sc2n1 [Example 1069, N-tert-Butyl-2-ethyl-6-methyl-thieno[2,3-d]pyrimidin-4-amine] | 30.9 µM (≈ 7.71 µg/mL) | > 50 µM | 5 mm
4 | CCc1nc(N(CC)CC)c2cc(C)sc2n1 [Example 0943, N,N,2-triethyl-6-methylthieno[2,3-d]pyrimidin-4-amine] | > 50 µM | > 50 µM | 4 mm
5 | CCc1nc(NC2CC2)c2ccsc2n1 [Example 1074, N-Cyclopropyl-2-ethyl-thieno[2,3-d]pyrimidin-4-amine] | 6.1 µM (≈ 1.34 µg/mL) | 22.7 µM (≈ 4.98 µg/mL) | 21 mm
6 | FC(F)(F)c1nc(NC2CC2)c2ccsc2n1 [Example 1541, N-Cyclopropyl-2-(trifluoromethyl)thieno[2,3-d]pyrimidin-4-amine] | 36.8 µM (≈ 9.54 µg/mL) | > 50 µM | 1.8 mm
7 | CCCCN(C)c1nc(CC)nc2sc(C)cc12 [Example 1021, N-Butyl-2-ethyl-N,6-dimethylthieno[2,3-d]pyrimidin-4-amine] | 3.93 µM (≈ 1.04 µg/mL) | 9.81 µM (≈ 2.58 µg/mL) | 10 mm
8 | CCc1nc(NCC(F)(F)F)c2cc(C)sc2n1 [Example 1072, 2-Ethyl-6-methyl-N-(2,2,2-trifluoroethyl)thieno[2,3-d]pyrimidin-4-amine] | 6.32 µM (≈ 1.74 µg/mL) | 19.2 µM (≈ 5.29 µg/mL) | 9 mm
9 | CCc1nc(NCCCC(F)(F)F)c2ccsc2n1 [Example 1366, 2-Ethyl-N-(4,4,4-trifluorobutyl)thieno[2,3-d]pyrimidin-4-amine] | 0.00133 µM (≈ 0.000385 µg/mL) | 0.00369 µM (≈ 0.00107 µg/mL) | 14 mm
10 | CCc1nc(NCCC(C)C)c2cc(C)sc2n1 [Example 1022, 2-Ethyl-6-methyl-N-(3-methylbutyl)thieno[2,3-d]pyrimidin-4-amine] | 0.329 µM (≈ 0.0867 µg/mL) | 0.96 µM (≈ 0.253 µg/mL) | 14 mm
11 | Cc1cc2c(NC3CC3)nc(C(C)C)nc2s1 [Example 1061, N-Cyclopropyl-2-isopropyl-6-methyl-thieno[2,3-d]pyrimidin-4-amine] | 0.615 µM (≈ 0.152 µg/mL) | 1.28 µM (≈ 0.317 µg/mL) | 19 mm
12 | CCCCNc1nc(CC)nc2scc(C)c12 [Example 1699, N-Butyl-2-ethyl-5-methylthieno[2,3-d]pyrimidin-4-amine] | 35.5 µM (≈ 8.85 µg/mL) | 45.5 µM (≈ 11.3 µg/mL) | 6 mm
13 | CCc1nc(N)c2cc(C)sc2n1 [Example 1060, 2-Ethyl-6-methyl-thieno[2,3-d]pyrimidin-4-amine] | 10 µM (≈ 1.93 µg/mL) | 17.2 µM (≈ 3.32 µg/mL) | 0 mm
14 | CCc1nc(NCCCOC)c2cc(C)sc2n1 [Example 0941, 2-ethyl-N-(3-methoxypropyl)-6-methylthieno[2,3-d]pyrimidin-4-amine] | 7.79 µM (≈ 2.07 µg/mL) | 16.3 µM (≈ 4.33 µg/mL) | 4 mm
15 | CCc1nc(NC2CCCC2)c2cc(C)sc2n1 [Example 0951, N-cyclopentyl-2-ethyl-6-methylthieno[2,3-d]pyrimidin-4-amine] | > 50 µM | > 50 µM | 1 mm
16 | CCc1nc(NC2CCC2)c2cc(C)sc2n1 [Example 1019, N-Cyclobutyl-2-ethyl-6-methylthieno[2,3-d]pyrimidin-4-amine] | 11.1 µM (≈ 2.75 µg/mL) | 26.4 µM (≈ 6.53 µg/mL) | 10 mm
17 | CCCCNc1nc(C)nc2sc3c(c12)CCCC3 [Example 0881, N-butyl-5-methyl-8-thia-4,6-diazatricyclo[7.4.0.0^2,^7]trideca-1(9),2,4,6-tetraen-3-amine] | 6.45 µM (≈ 1.78 µg/mL) | 13.4 µM (≈ 3.69 µg/mL) | 7 mm
18 | CCc1nc(NCCOC)c2cc(C)sc2n1 [Example 0950, 2-ethyl-N-(2-methoxyethyl)-6-methylthieno[2,3-d]pyrimidin-4-amine] | 15.9 µM (≈ 4 µg/mL) | 28.4 µM (≈ 7.14 µg/mL) | 0 mm
19 | CCCCNc1nc(C(F)(F)F)nc2sccc12 [Example 1545, N-Butyl-2-(trifluoromethyl)thieno[2,3-d]pyrimidin-4-amine] | 26.9 µM (≈ 7.41 µg/mL) | 30.5 µM (≈ 8.4 µg/mL) | 1.8 mm
20 | CCc1nc(NCCCO)c2cc(C)sc2n1 [Example 0936, 3-({2-ethyl-6-methylthieno[2,3-d]pyrimidin-4-yl}amino)propan-1-ol] | 26 µM (≈ 6.54 µg/mL) | 48.2 µM (≈ 12.1 µg/mL) | 0.75 mm
21 | CCCCNc1nc(C)nc2c1oc1ccccc12 [Example 0927, N-butyl-4-methyl-8-oxa-3,5-diazatricyclo[7.4.0.0^2,^7]trideca-1(9),2(7),3,5,10,12-hexaen-6-amine] | 1.77 µM (≈ 0.452 µg/mL) | 4.02 µM (≈ 1.03 µg/mL) | 10 mm
22 | CCc1nc(NC2CC2)c2c(C)csc2n1 [Example 1701, N-Cyclopropyl-2-ethyl-5-methylthieno[2,3-d]pyrimidin-4-amine] | 9.77 µM (≈ 2.28 µg/mL) | 16.1 µM (≈ 3.76 µg/mL) | 1.7 mm
23 | FC(F)(F)C(F)(F)c1nc(NC2CC2)c2ccsc2n1 [Example 1543, N-Cyclopropyl-2-(perfluoroethyl)thieno[2,3-d]pyrimidin-4-amine] | 26.9 µM (≈ 8.32 µg/mL) | 29.6 µM (≈ 9.15 µg/mL) | 
24 | CCc1nc(NCCCC(F)(F)F)c2cc(C)sc2n1 [Example 1020, 2-Ethyl-6-methyl-N-(4,4,4-trifluorobutyl)thieno[2,3-d]pyrimidin-4-amine] | 0.116 µM (≈ 0.0352 µg/mL) | 0.163 µM (≈ 0.0494 µg/mL) | 
25 | CCc1nc(NCCCc2ccccc2)c2c(C)csc2n1 [Example 1698, 2-Ethyl-5-methyl-N-(3-phenylpropyl)thieno[2,3-d]pyrimidin-4-amine] | 0.515 µM (≈ 0.16 µg/mL) | 3.67 µM (≈ 1.14 µg/mL) | 
